Our source for the IC50 values is patent US8178668B2, “2-aminopyridine kinase inhibitors” (OSI Pharmaceuticals, LLC, priority 2008, dated 2012).

The target in one test is RON (human) (Homo sapiens, UniProt Q04912). The test is described as follows: RON kinase AlphaScreen assay (Km of ATP). It is filed as biochemical. The conditions noted are these: ATP at Km; at least duplicate experiments. The essentials:
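AlphaScreen with PT66 donor/acceptor beads, read after 1 h, detected phosphorylation of biotinylated poly(Glu,Tyr) by human RON. Enzyme-started reactions ran 30 min at room temperature with ATP at Km. Buffer was HEPES pH 7.4 with MgCl2, glycerol, vanadate and 1% DMSO.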
(In Alpha technology, singlet oxygen from a donor bead excites a nearby acceptor bead.)

A further test addresses MET (human) (Homo sapiens, UniProt P08581). The test is described as follows: MET kinase AlphaScreen assay (Km of ATP). In kind it is biochemical. The note with it: ATP at Km; at least duplicate experiments. In a few lines:
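AlphaScreen detection with PT66 beads (1 h) follows a 60 min room-temperature MET reaction. Substrate is 200 ng/μL biotinylated poly(Glu,Tyr), with ATP set at an enzyme-optimized concentration. Buffer is HEPES pH 7.4 with MgCl2, MnCl2 and 0.334 mM vanadate, compounds at 1% DMSO.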

Counter-ions that a name gives are not always drawn.

Sequence of RON (human) (Q04912 25-1400): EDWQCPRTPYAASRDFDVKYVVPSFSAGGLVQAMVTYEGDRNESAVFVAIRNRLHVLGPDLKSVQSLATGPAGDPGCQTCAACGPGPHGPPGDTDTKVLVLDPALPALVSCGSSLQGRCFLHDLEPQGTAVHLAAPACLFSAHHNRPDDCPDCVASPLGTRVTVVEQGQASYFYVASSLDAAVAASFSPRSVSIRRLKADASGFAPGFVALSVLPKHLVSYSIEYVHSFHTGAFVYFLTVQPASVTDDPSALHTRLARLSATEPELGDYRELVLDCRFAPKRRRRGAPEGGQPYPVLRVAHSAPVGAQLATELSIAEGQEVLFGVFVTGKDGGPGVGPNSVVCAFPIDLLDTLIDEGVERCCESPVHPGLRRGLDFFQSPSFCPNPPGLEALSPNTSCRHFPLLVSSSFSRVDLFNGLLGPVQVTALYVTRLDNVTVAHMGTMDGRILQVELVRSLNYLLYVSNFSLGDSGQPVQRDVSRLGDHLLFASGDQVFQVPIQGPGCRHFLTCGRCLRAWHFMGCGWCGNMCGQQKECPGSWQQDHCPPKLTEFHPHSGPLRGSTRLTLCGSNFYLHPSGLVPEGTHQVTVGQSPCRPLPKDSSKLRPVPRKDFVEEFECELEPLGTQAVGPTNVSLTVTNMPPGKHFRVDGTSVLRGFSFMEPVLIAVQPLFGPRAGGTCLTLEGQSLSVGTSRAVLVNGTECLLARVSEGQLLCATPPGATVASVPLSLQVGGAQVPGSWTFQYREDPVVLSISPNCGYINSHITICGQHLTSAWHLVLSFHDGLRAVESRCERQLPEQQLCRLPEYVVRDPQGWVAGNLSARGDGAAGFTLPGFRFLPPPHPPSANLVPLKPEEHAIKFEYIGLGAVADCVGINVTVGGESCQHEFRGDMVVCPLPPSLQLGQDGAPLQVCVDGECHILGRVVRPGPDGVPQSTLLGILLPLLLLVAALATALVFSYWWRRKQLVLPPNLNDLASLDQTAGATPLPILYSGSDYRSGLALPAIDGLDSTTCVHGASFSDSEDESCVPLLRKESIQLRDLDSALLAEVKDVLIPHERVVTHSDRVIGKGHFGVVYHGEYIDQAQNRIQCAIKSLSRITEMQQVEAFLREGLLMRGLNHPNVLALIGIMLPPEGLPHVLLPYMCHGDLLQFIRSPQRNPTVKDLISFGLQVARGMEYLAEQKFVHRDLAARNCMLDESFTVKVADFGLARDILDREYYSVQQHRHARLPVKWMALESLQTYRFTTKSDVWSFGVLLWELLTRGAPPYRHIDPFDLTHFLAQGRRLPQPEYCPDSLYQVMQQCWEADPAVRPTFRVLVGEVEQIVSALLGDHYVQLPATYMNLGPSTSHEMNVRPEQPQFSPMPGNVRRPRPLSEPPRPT
Sequence of MET (human) (P08581 25-1390): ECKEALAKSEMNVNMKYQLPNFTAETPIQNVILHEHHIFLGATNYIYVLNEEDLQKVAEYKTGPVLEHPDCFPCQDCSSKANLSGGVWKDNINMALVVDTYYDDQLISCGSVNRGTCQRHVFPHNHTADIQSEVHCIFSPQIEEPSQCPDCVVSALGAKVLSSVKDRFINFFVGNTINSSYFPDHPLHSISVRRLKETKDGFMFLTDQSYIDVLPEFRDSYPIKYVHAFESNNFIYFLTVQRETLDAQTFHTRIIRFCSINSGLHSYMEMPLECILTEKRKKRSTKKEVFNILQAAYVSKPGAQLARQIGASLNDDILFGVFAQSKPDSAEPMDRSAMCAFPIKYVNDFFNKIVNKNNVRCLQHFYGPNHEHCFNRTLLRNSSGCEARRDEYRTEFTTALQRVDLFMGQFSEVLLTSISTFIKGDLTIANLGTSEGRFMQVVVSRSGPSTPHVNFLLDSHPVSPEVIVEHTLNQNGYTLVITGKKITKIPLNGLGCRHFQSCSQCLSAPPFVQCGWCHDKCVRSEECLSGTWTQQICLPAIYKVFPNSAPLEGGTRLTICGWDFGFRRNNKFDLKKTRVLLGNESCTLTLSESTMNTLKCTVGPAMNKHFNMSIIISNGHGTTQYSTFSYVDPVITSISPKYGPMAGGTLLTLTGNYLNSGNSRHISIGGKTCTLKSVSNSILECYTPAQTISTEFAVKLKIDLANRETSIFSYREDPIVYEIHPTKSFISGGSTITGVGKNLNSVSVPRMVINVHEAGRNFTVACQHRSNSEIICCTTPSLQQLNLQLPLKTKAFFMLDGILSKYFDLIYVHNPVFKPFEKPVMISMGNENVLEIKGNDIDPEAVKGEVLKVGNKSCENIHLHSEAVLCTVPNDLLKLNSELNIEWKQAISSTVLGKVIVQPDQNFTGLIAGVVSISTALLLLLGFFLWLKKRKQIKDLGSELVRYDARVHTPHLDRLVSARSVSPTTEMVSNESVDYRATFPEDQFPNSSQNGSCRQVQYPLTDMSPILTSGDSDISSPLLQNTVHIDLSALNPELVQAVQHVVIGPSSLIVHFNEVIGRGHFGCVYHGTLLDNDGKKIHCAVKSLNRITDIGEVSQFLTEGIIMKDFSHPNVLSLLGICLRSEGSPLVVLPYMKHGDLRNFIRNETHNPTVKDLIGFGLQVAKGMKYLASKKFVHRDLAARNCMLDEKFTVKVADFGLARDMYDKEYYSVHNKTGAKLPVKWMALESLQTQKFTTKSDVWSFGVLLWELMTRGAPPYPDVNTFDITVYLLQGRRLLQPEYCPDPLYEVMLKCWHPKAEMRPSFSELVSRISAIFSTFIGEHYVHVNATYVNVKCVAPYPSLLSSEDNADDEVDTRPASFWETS

In general, IC50 refers to the concentration that gives 50% inhibition. `Nc1ncc(-c2cnn(C3CCNCC3)c2)cc1-c1nc2cccc(Cl)c2s1` [Example 259, 3-(7-Chlorobenzothiazol-2-yl)-5-(1-piperidin-4-yl-1H-pyrazol-4-yl)-pyridin-2-ylamine]: the IC50 against RON (human) and against MET (human) was not above 100 nM in each case.
Turning to `COc1cccc2nc(-c3cc(-c4cnn(C5CCNCC5)c4)cnc3N)sc12` [Example 264, 3-(7-Methoxybenzothiazol-2-yl)-5-(1-piperidin-4-yl-1H-pyrazol-4-yl)-pyridin-2-ylamine], the IC50 at RON (human) is 100 to 1000 nM; against MET (human), not above 100 nM.
As to `Nc1ncc(-c2ccsc2)cc1-c1cc2c(Cl)ccc(F)c2cn1` [Example 76, 3-(5-Chloro-8-fluoroisoquinolin-3-yl)-5-thiophen-3-ylpyridin-2-amine], the IC50 on RON (human) and against MET (human) was more than 20000 nM throughout.
For the molecule `Nc1ncc(-c2cnn(C3CCNCC3)c2)cc1-c1nc2cccc(-c3cccnc3)c2s1` [Example 250, 5-(1-Piperidin-4-yl-1H-pyrazol-4-yl)-3-(7-pyridin-3-ylbenzothiazol-2-yl)pyridin-2-ylamine dihydrochloride], the IC50 at RON (human) was 100 to 1000 nM; against MET (human), not above 100 nM.
In the same order, the values of `CN1CCC(n2cc(-c3cnc(N)c(-c4cc5c(Cl)ccc(F)c5cn4)c3)cn2)CC1` [Example 58, 3-(5-Chloro-8-fluoroisoquinolin-3-yl)-5-[1-(1-methylpiperidin-4-yl)-1H-pyrazol-4-yl]-pyridin-2-ylamine] are 100 to 1000 nM and 100 to 1000 nM.
On the same counts, the results for `Nc1ncc(-c2cnn(C3CCN(CC(=O)N4CCC(O)C4)CC3)c2)cc1-c1nc2ccccc2s1` (stereo not shown) [Example 167, 2-{4-[4-(6-Amino-5-benzothiazol-2-ylpyridin-3-yl)-pyrazol-1-yl]-piperidin-1-yl}-1-(3-hydroxypyrrolidin-1-yl)ethanone] are 100 to 1000 nM and not above 100 nM.
On the same counts, the results for `Nc1ncc(-c2cnn(C3CCNCC3)c2)cc1-c1nc2c(s1)CCCCC2` [Example 299, 5-(1-Piperidin-4-yl-1H-pyrazol-4-yl)-3-(5,6,7,8-tetrahydro-4H-cycloheptathiazol-2-yl)-pyridin-2-ylamine] are 100 to 1000 nM and 100 to 1000 nM.
Turning to `CN1CCN(c2ncc(-c3cnc(N)c(-c4cc5c(Cl)ccc(F)c5cn4)c3)s2)CC1` [Example 60, 3-(5-Chloro-8-fluoroisoquinolin-3-yl)-5-[2-(4-methylpiperazin-1-yl)-thiazol-5-yl]-pyridin-2-ylamine trihydrochloride], the IC50 against RON (human) and against MET (human) was 1000 to 20000 nM throughout.
As for `Nc1ncc(-c2cnn(C3CCNCC3)c2)cc1-c1cc2c(Br)cccc2cn1` [Example 22, 3-(5-Bromoisoquinolin-3-yl)-5-(1-piperidin-4-yl-1H-pyrazol-4-yl)-pyridin-2-ylamine trihydrochloride salt], the IC50 against RON (human) was in the range of 1000 to 20000 nM; at MET (human), 100 to 1000 nM.
In the same order, the values of `COCCNC(=O)CN1CCC(n2cc(-c3cnc(N)c(-c4nc5ccccc5s4)c3)cn2)CC1` [Example 172, 2-{4-[4-(6-Amino-5-benzothiazol-2-ylpyridin-3-yl)-pyrazol-1-yl]-piperidin-1-yl}-N-(2-methoxyethyl)-acetamide] are 100 to 1000 nM and 100 to 1000 nM.
Take `Nc1ncc(-c2cnn([C@@H]3CN[C@@H](C(=O)N4CCCCC4)C3)c2)cc1-c1nc2ccccc2s1` [Example 178, {(2R,4S)-4-[4-(6-Amino-5-benzothiazol-2-ylpyridin-3-yl)-pyrazol-1-yl]-pyrrolidin-2-yl}-piperidin-1-ylmethanone]: the IC50 at RON (human) and on MET (human) was 100 to 1000 nM each time.
On to `Nc1ncc(-c2cnn([C@@H]3CN[C@@H](C(=O)N4CCC(O)C4)C3)c2)cc1-c1nc2ccccc2s1` (stereo partly drawn) [Example 177, {(2R,4S)-4-[4-(6-Amino-5-benzothiazol-2-ylpyridin-3-yl)-pyrazol-1-yl]-pyrrolidin-2-yl}-(3-hydroxypyrrolidin-1-yl)methanone], for which the concentration for half-maximal inhibition (IC50) was 100 to 1000 nM against RON (human) and not above 100 nM on MET (human).
On the same counts, the results for `COCCNC(=O)Cn1cc(-c2cnc(N)c(-c3nc4ccccc4s3)c2)cn1` [Example 134, 2-[4-(6-Amino-5-benzothiazol-2-ylpyridin-3-yl)-pyrazol-1-yl]-N-(2-methoxyethyl)-acetamide] are 1000 to 20000 nM and 1000 to 20000 nM.
On the same counts, the results for `CS(=O)(=O)Nc1ccc(-c2cnc(N)c(-c3nc4ccccc4s3)c2)cc1` [Example 231, N-4-[6-Amino-5-(1,3-benzothiazol-2-yl)pyridin-3-yl]phenylmethanesulfonamide] are 1000 to 20000 nM and 1000 to 20000 nM.
In the same order, the values of `Nc1ncc(-c2cccc(C(=O)NCCCN3CCCC3)c2)cc1-c1nc2ccccc2s1` [Example 209, 3-(6-Amino-5-benzothiazol-2-ylpyridin-3-yl)-N-(3-pyrrolidin-1-ylpropyl)benzamide] are 1000 to 20000 nM and 1000 to 20000 nM.
Regarding `COCCN1CCC(n2cc(-c3cnc(N)c(-c4cc5c(Cl)ccc(F)c5cn4)c3)cn2)CC1` [Example 70, 3-(5-Chloro-8-fluoroisoquinolin-3-yl)-5-1-[1-(2-methoxyethyl)-piperidin-4-yl]-1H-pyrazol-4-yl-pyridin-2-ylamine], the IC50 against RON (human) is 1000 to 20000 nM; at MET (human), 100 to 1000 nM.
On to `CCOC(=O)COc1ccc(-c2cnc(N)c(-c3nc4ccccc4s3)c2)cc1` [Example 236, Ethyl 4-[6-amino-5-(1,3-benzothiazol-2-yl)pyridin-3-yl]phenoxyacetate], for which the IC50 at RON (human) and against MET (human) was 1000 to 20000 nM throughout.
With `Nc1ncc(-c2cnn(C3CCN(CC(=O)NCCO)CC3)c2)cc1-c1nc2ccccc2s1` [Example 171, 2-{4-[4-(6-Amino-5-benzothiazol-2-ylpyridin-3-yl)-pyrazol-1-yl]-piperidin-1-yl}-N-(2-hydroxyethyl)-acetamide], the IC50 against RON (human) was 100 to 1000 nM; on MET (human), not above 100 nM.
With `Nc1ncc(-c2ccncc2)cc1-c1cc2c(Cl)ccc(F)c2cn1` [Example 79, 5-(5-Chloro-8-fluoroisoquinolin-3-yl)-3,4′-bipyridin-6-amine], the IC50 at RON (human) and on MET (human) was 1000 to 20000 nM each time.
`Nc1ncc(-c2cnn(C3CCNCC3)c2)cc1-c1cc2c(C(F)(F)F)cccc2cn1` [Example 18, 5-(1-Piperidin-4-yl-1H-pyrazol-4-yl)-3-(5-trifluoromethylisoquinolin-3-yl)-pyridin-2-ylamine trihydrochloride salt]: the IC50 at RON (human) and against MET (human) was 100 to 1000 nM in each case.
As to `N#Cc1cccc2sc(-c3cc(-c4cnn(C5CCNCC5)c4)cnc3N)nc12` [Example 284, 2-[2-Amino-5-(1-piperidin-4-yl-1H-pyrazol-4-yl)-pyridin-3-yl]-benzothiazole-4-carbonitrile], the IC50 against RON (human) and against MET (human) was 100 to 1000 nM throughout.
As for `Nc1ncc(-c2cnn(C3CCNCC3)c2)cc1-c1nc2cc(OC(F)(F)F)ccc2s1` [Example 281, 5-(1-Piperidin-4-yl-1H-pyrazol-4-yl)-3-(5-trifluoromethoxybenzothiazol-2-yl)-pyridin-2-ylamine], the IC50 at RON (human) and against MET (human) was 100 to 1000 nM each time.
As for `Nc1ncc(-c2ccc(C(=O)N3CCOCC3)cc2)cc1-c1nc2ccccc2s1` [Example 189, [4-(6-Amino-5-benzothiazol-2-ylpyridin-3-yl)phenyl]morpholin-4-ylmethanone], the concentration for half-maximal inhibition (IC50) against RON (human) and at MET (human) was 1000 to 20000 nM throughout.
Take `Nc1ncc(-c2ccc(C(=O)NCc3ccco3)cc2)cc1-c1nc2ccccc2s1` [Example 193, 4-(6-Amino-5-benzothiazol-2-ylpyridin-3-yl)-N-furan-2-ylmethylbenzamide]: the IC50 against RON (human) and against MET (human) was 1000 to 20000 nM in each case.
As for `Nc1ncc(-c2cnn(C3CCN(CC(F)(F)F)CC3)c2)cc1-c1cc2c(Cl)ccc(F)c2cn1` [Example 69, 3-(5-Chloro-8-fluoroisoquinolin-3-yl)-5-1-[1-(2,2,2-trifluoroethyl)-piperidin-4-yl]-1H-pyrazol-4-yl-pyridin-2-ylamine bis-hydrochloride], the IC50 against RON (human) and on MET (human) was 1000 to 20000 nM in each case.
As for `Nc1ncc(-c2cccc(C(=O)N3CCN(CC(=O)N4CCCC4)CC3)c2)cc1-c1nc2ccccc2s1` [Example 211, 2-{4-[3-(6-Amino-5-benzothiazol-2-ylpyridin-3-yl)benzoyl]piperazin-1-pyrrolidin-1-yl}-1-ylethanone], the IC50 at RON (human) and against MET (human) was 1000 to 20000 nM each time.
As to `Nc1ncc(-c2ccc(O)nc2)cc1-c1cc2c(Cl)ccc(F)c2cn1` [Example 84, 6′-Amino-5′-(5-chloro-8-fluoroisoquinolin-3-yl)-3,3′-bipyridin-6-ol], the IC50 on RON (human) and on MET (human) was 1000 to 20000 nM each time.
As for `Nc1ncc(-c2cnn(C3CCNCC3)c2)cc1-c1cc2c(-c3cn[nH]c3)ccc(F)c2cn1` [Example 51, 3-[8-Fluoro-5-(1H-pyrazol-4-yl)-isoquinolin-3-yl]-5-(1-piperidin-4-yl-1H-pyrazol-4-yl)-pyridin-2-ylamine trihydrochloride], the half-maximal inhibitory concentration (IC50) against RON (human) and at MET (human) was not above 100 nM each time.
Turning to `Cn1cc(-c2ccc(F)c3cnc(-c4cc(-c5cnn(C6CCNCC6)c5)cnc4N)cc23)cn1` [Example 52, 3-[8-Fluoro-5-(1-methyl-1H-pyrazol-4-yl)-isoquinolin-3-yl]-5-(1-piperidin-4-yl-1H-pyrazol-4-yl)-pyridin-2-ylamine trihydrochloride], the IC50 at RON (human) and against MET (human) was not above 100 nM each time.
